Consider ten molecules from patent EP3409671B1, “ISOTHIAZOLE DERIVATIVES AS GPR120 AGONISTS FOR THE TREATMENT OF TYPE II DIABETES” (Janssen Pharmaceutica NV, priority 2014, dated 2015).

The test system of one assay is C57b1/6J Mice. Put plainly: GPR120 C57bl6 Mouse IPGTT. In kind it is in vivo. Details: C57 IPGTT 10mg/kg: unit not given here. The following applies: for C57 IPGTT 3mg/kg: 3mg/kg dosed 30 minutes prior to glucose IP 1.5g/kg; for C57 IPGTT 10mg/kg: 10mg/kg dosed 30 minutes prior to glucose IP 1.5g/kg. The method, then:
Male, C57b1/6J Mice were ordered in at 8 weeks of age from Jackson Labs. Individual mice weighed anywhere in the range of 25-30 grams on study day. The mice were fasted, with removal of food occurring at 7am on the morning of the study. Animals were moved into the room at 10:00am, to give them time to acclimate. Glucose (insulin syringes) was drawn up either the night before or the morning of the study. Glucose was dosed (IP) at 1.5g/kg at 7.5ml/kg (20% glucose straight TEKNOVA, 250ml sterile bottle w/ catalogue number G0525). Test compounds were kept spinning and were only drawn into the syringes prior to study commencement. Animals were bled via tail snip to determine basal glucose levels prior to dosing of treatments. An Ascensia BREEZE Blood Glucose Monitoring System by Bayer (using unique 10-test disks) was used for determining glucose levels. The bleeds started at approximately 12:45pm and dosing started, at 1-minute intervals, immediately after. All groups were dosed 30 minutes prior to glucose administration at a dose volume of 10ml/kg (the dose volume was calculated separately for each individual animal). Thirty minutes after the first dose animals were bled again for a second baseline, or T=0, and immediately dosed with glucose via an i.p. injection. The exact dose volume for glucose was also calculated separately for each individual animal. Glucose measurements were taken at -30min prior to compound dose, at t=0 (immediately prior to glucose dose), and at 15, 30, 45, 60, 90min post glucose dose.
Glucose values were entered into an Excel sheet and graphed in GraphPad Prism. The following were calculated from Prism: Change from -30 to 0 BSLN Glucose, Raw Glucose AUC -30 to 90min, Delta Glucose AUC -30 to 90min, Raw Glucose AUC 0 to 90min, Delta Glucose AUC 0 to 90min.
Representative compounds of the present disclosure were tested according to the procedures as described in Biological Example 4, above with results as listed in Table 3, below. […] Where a compound was tested more than once, each result is listed individually. Table 3: GPR120 C57bl6 Mouse IPGTT OGTT Results

Assay [1] concerns the target T1, Human GPR120 short form (Homo sapiens, UniProt Q5NUL3).
T1 construct: expressed in transfected cells
T1 sequence (Q5NUL3 1-361): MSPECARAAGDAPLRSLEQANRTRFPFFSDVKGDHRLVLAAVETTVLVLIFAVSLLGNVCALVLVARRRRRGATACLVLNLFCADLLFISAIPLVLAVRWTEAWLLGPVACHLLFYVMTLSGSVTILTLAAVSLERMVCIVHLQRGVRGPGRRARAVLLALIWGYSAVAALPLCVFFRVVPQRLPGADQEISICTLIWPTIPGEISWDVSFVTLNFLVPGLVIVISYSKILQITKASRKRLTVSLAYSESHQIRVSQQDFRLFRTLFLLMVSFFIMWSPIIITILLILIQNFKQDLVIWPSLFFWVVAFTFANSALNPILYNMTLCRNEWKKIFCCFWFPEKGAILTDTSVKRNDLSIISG
Put plainly: Human GPR120 Calcium Flux Assay, Procedure Calcium A. In kind it is cell-based. The following applies: HEK-293 cells expressing Human GPR120 short form, FLIPR, 2500 cells / well; read-out: GPR120 Ca^2+ Assay A EC50. The source says:
(§1) This in vitro assay serves to assess test compound agonist activity against the short splice variant (SVS with Accession number NM_001195755.1 confirmed by sequencing data) of the GPR120 receptor. The Human Short splice variant #2 (NM_001195755.1) is missing an in-frame coding exon compared to variant 1 (the Human Long splice variant NM_181745.3), resulting in a shorter isoform (GPR120-S) lacking a 16 aa protein segment compared to isoform GPR120-L. The assay platform utilizes HEK-293 cells stably transfected to express the Human GPR120 short form. These cells are first loaded with the Ca^+2 sensitive dye, Fluo-4 NW. Upon stimulation, intracellular released Ca^+2 can bind to the dye and alter its fluorescence intensity. This increase in fluorescence signal, and thus the flux in intracellular [Ca^2+], is detected and quantitated by fluorescence imaging using a FLIPR reader. The effect of the agonist is measured as a function of concentration and used to calculate an EC50 based upon a response curve.
In this procedure 2500 cells / well were employed.
(§2) A Human GPR120 clone (Genbank accession number NM _001195755.1) was placed into the pcDNA3.1 mammalian expression vector carrying the neomycin resistance gene. A stable mammalian cell was generated by placing the above clone into a HEK293 background. Clonal cells responding to long chain fatty acids had expression levels of GPR120 confirmed by RT-qPCR. Human HEK-GPR120 cells were cultured in Dulbecco's Modified Eagle's Medium (DMEM)/F12 medium supplemented with 10% fetal bovine serum (FBS), 1% L-Glutamine and 1% penicillin/streptomycin and 0.5 mg/ml G-418. Cells were split 2 times a week to keep the cells in the log-phase growth.
(§3) In preparation for the assay, HEK cells stably transfected with Human GPR120 (2.5K cells per well in 25uL growth medium) were seeded into 384-well plates and then incubated overnight (37°C, 5% CO2). The next day, the media was changed to 20 µL assay buffer and the cell starved for 1h at 37°C. […]
(§4) The assay was performed on a FLIPR plate reader using the following parameters. Baseline was read for 10 seconds at 1 sec intervals. The program was set to transfer 10µL of ligand from compound plate to cell plate after baseline reading. […] After compound addition, each well was read for 300 sec, with measurements collected at 1 sec intervals.
(§5) The kinetic data from the FLIPR was based upon a 5 minute window for data collection. The fluorescence of each sample well was used for individual calculations of a normalized RFU value, which was defined as maximum response minus the minimum response. The normalized fluorescence reading (RFU) was calculated as follows: RFU = Fmax−Fmin [formula] […]
A general note: A change in cytosolic calcium serves as a functional read-out for many receptors and channels.

Assay [2] addresses T1, Human GPR120 short form. Put plainly: Human GPR120 Calcium Flux Assay, Procedure Calcium B. In kind it is cell-based. The settings on record: HEK-293 cells expressing Human GPR120 short form, FLIPR, 4200 cells/well; read-out: GPR120 Ca^2+ Assay B EC50.
Description: as §1
In this procedure 4200 cells/well were employed.
as §2, §3, §4, §5

In the case of `O=C(O)CCc1cc(F)c(OCc2c(C3CCCC3)nsc2C(F)(F)F)c(F)c1` [Cpd 71, 3-(4-[[3-cyclopentyl-5-(trifluoromethyl)-1,2-thiazol-4-yl]methoxy]-3,5-difluorophenyl)propanoic acid], in the assay on C57b1/6J Mice, the “C57 IPGTT 3mg/kg” value is given as -14.
As to `Cc1c(CCC(=O)O)ccc(OCc2c(-c3ccc(Cl)cc3)nsc2C(F)(F)F)c1C` [Cpd 142, 3-(4-((3-(4-chlorophenyl)-5-(trifluoromethyl)isothiazol-4-yl)methoxy)-2,3-dimethylphenyl)propanoic acid], in the assay with C57b1/6J Mice, the “C57 IPGTT 3mg/kg” value is listed as -34 and the “C57 IPGTT 10mg/kg” value was -61.
For the molecule `CCc1ccc(-c2snc(Cl)c2COc2ccc(CCC(=O)O)c(C)c2C)cc1` [Cpd 85, 3-(4-[[3-chloro-5-(4-ethylphenyl)-1,2-thiazol-4-yl]methoxy]-2,3-dimethylphenyl)propanoic acid], in the assay with C57b1/6J Mice, the “C57 IPGTT 3mg/kg” value is on record as -29 and the “C57 IPGTT 10mg/kg” value is -48.
Regarding `O=C(O)CCc1ccc(OCc2c(-c3ccc(Cl)cc3)nsc2C(F)(F)F)c(F)c1F` [Cpd 106, 3-(4-[[3-(4-chlorophenyl)-5-(trifluoromethyl)-1,2-thiazol-4-yl]methoxy]-2,3-difluorophenyl)propanoic acid], the “C57 IPGTT 10mg/kg” value in the assay with C57b1/6J Mice is -34.
Take `O=C(O)CCc1cc(F)c(OCc2c(-c3ccc(Cl)cc3)nsc2C(F)(F)F)c(F)c1` [Cpd 79, 3-(4-[[3-(4-chlorophenyl)-5-(trifluoromethyl)-1,2-thiazol-4-yl]methoxy]-3,5-difluorophenyl)propanoic acid]: the “C57 IPGTT 10mg/kg” value in the assay with C57b1/6J Mice was -60.
In the case of `Cc1ccccc1-c1snc(Cl)c1COc1cc(C(F)(F)F)c(CCC(=O)O)cc1F` [Cpd 246, 3-(4-((3-chloro-5-(o-tolyl)isothiazol4-yl)methoxy)-5-fluoro-2-(trifluoromethyl)phenyl)propanoic acid], on Human GPR120 short form [1], the EC50 (in general, the concentration needed to bring the measured effect to its halfway point) was 2350 nM.
Still for that read-out and setting: the value for `O=C(O)CCc1cc(F)c(OCc2c(-c3ccc(F)c(F)c3)nsc2C(F)(F)F)c(F)c1` [Cpd 129, 3-(4-((3-(3,4-difluorophenyl)-5-(trifluoromethyl)isothiazol-4-yl)methoxy)-3,5-difluorophenyl)propanoic acid] was 125 nM.
As to `OCCCc1cc(F)c(OCc2c(-c3ccc(Cl)cc3)nsc2C(F)(F)F)c(F)c1` [Cpd 100, 3-(4-[[3-(4-chlorophenyl)-5-(trifluoromethyl)-1,2-thiazol-4-yl]methoxy]-3,5-difluorophenyl)propan-1-ol], the “C57 IPGTT 10mg/kg” value in the assay on C57b1/6J Mice is listed as -42.
In the case of `COC(=O)CCc1cc(F)c(OCc2c(-c3ccc(Cl)cc3F)nsc2C(F)(F)F)c(F)c1` [Cpd 263, Methyl 3-(4-{[3-(4-chloro-2-fluorophenyl)-5-(trifluoromethyl)isothiazol-4-yl]methoxy}-3,5-difluorophenyl)propanoate], the EC50 on Human GPR120 short form [2] was more than 5000 nM.
As for `CCc1ccc(-c2nsc(C(F)(F)F)c2COc2c(F)cc(CCC(=O)O)cc2F)cc1` [Cpd 70, 3-(4-[[3-(4-ethylphenyl)-5-(trifluoromethyl)-1,2-thiazol-4-yl]methoxy]-3,5-difluorophenyl)propanoic acid], in the assay with C57b1/6J Mice (30mg/kg dosed 30 minutes prior to glucose IP 1.5g/kg), the “C57 IPGTT 30mg/kg” value is -88.
